The test system of test [1] is full thickness skin incisions. The test is described as follows: Wound tensile strength in rat full thickness dermal incisions. The test is classed as in vivo, Wistar Furth rats. The procedure:
Wistar Furth adult male rats (175-250g) were anesthetized by intraperitoneal injection of pentobarbital (60 mg/kg body weight). The rats dorsal area was closely shaved, and each animal was positioned and secured for surgery. Using aseptic technique, five full thickness skin incisions, 1.5 cm long, were made on the dorsal area. Each incision was treated with 0.05-0.10 ml of a blind sample of the peptide RRRRRRGDSPK-conjugated to hyaluronate or with 0.05-0.10 ml of human fibronectin (3 mg/ml in PBS, Colloborative Research, Bedford, Mass.) or rat fibronectin (2 mg/ml in PBS, Telios Pharmaceuticals, San Diego, Calif.) or was left untreated as a control. After treatment, the incisions were closed using standard 4-0 nylon sutures for placement of 5 to 7 interrupted sutures. The rats were returned to their cages for recovery and observation. At post operative days 2 through 7 and 10, six animals were anesthetized as above and were euthanized by an intracardiac injection of 0.5 cc of T-61.
Following euthanasia, the pelt was removed from the rat and 5 mm wide by 2 cm long skin strips bisecting incisions were prepared. Histological specimens from the skin adjacent to the tensile strength strip were also taken. To measure tensile strength, one end of the strip was clipped using a 1 mm Michel Clipper (Militex Instruments Co.) which was tied to a Grass model FTO3C force displacement transducer. The other end of the strip was clipped using a light weight hemostat which was attached to a Harvard Model 901 push-pull infusion pump (Harvard Instruments, Millis, Mass.) using cotton thread over a pulley. The transducer was attached to a Grass polygraph (Model 7D) for recording the results. After calibration, the pump was turned on to pull at the rate of 64 mm/min. The amount of force required to pull the skin apart at the incision was recorded on the polygraph.

A short description of test [2]: In vitro assays of the type described in Pierschbacher et al. (1983). The class given is cell-based.
Test [3] deals with PVA sponges implanted under the skin. In words: Polyvinylalcohol sponge implant model. The class given is in vivo, rats. The procedure:
Peptide-hyaluronate conjugates were tested using the model of Davidson, et al., J. Cell Biol. 100: 1219-1227 (1985), which is incorporated herein by reference. This model involves the implantation of inert PVA sponges loaded with the conjugates or control materials under the skin of rats. The sponges were removed from the animals at 4 to 10 days after implantation and analyzed for cell ingrowth number and type and as collagen content, blood vessel formation (angiogenesis) and inflammatory response, as well as persistence of the conjugate in the wound.

In test [4] the test system is dry eye condition. In words: Dry eye syndrome induced by excision of tear ducts. The class given is in vivo. To be noted: cats; eye drops from day 17 to day 43; conjugate at 100 mg/ml. The procedure: The dry eye conditon was induced in six cats on day zero by the excision of tear ducts from the eyes. The cats were divided into two groups and treated as follows:
Group one was treated with two drops of human fibronectin, 3 mg/ml, a day twice a day from day 17 to day 34, and two drops a day three times a day from day 34 to 43. Group two was treated with two drops of chondroitin sulfate-peptide conjugate, G(dR)5 G3 (dR)GDSPASSK 100 mg/ml, a day twice a day from days 17 to 34, and two drops a day three times a day from day 34 to day 43.

Setting [5] is: early time points, effect diminishing at later time points.

Where no end group is shown, it is not given here. [ ]: non-standard residue; d: D form.

For “conjugates employing the peptide G(dR)5 G3 (dR)GDSPASSK: peptide G(dR)5G3(dR)GDSPASSK coupled to hyaluronic acid with EDC, 20 to 30% peptide by weight (G[dR][dR][dR][dR][dR]GGG[dR]GDSPASSK; also: coupled to hyaluronic acid with EDC)”, in test [1] (day 2), the “wound strength, % of control” value is reported as 160%. Also, the “wound strength activity versus control (persistence)” value in test [1] (through day 10) is “greater than control”. Besides, in test [2], the “in vitro activity compared with the conjugate of Example V” value is recorded as “more activity than the RGGDSPK peptide conjugate”.
For the substance “RRRRRRGDSPK-conjugated to hyaluronate: peptide RRRRRRGDSPK coupled to hyaluronic acid by EDC, method of Example II (also: conjugated to hyaluronic acid by EDC)”, in test [1] (day 5 after incision (maximum effect), 0.05-0.10 ml per incision), the “wound strength, % of the strength of untreated wounds” value was 211%. In addition, the “wound strength versus untreated control” value in test [1] (days 3 through 7 after incision) is “increased”. For the same substance, in test [3] (setting [5]), the angiogenesis result is recorded as “increased”, the collagen secretion entry is given as “increased” and the fibroblast migration result is on record as “increased”. Besides, the “collagen deposition into the sponges versus control sponges” value in test [3] (up to the end of the experiment) is listed as “more collagen was continuously deposited”.
Turning to “chondroitin sulfate-peptide conjugate: peptide of Example I, G(dR)5G3(dR)GDSPASSK, coupled to chondroitin sulfate with EDC; 74 mg peptide/g conjugate (G[dR][dR][dR][dR][dR]GGG[dR]GDSPASSK; also: coupled to chondroitin sulfate with EDC)”, the “dry eye condition (impression cytology, rose bengal staining)” value in test [4] is listed as “marked reduction of the dry eye condition”.

Source of the values: US5955578A, “Polypeptide-polymer conjugates active in wound healing” (La Jolla Cancer Research Foundation, priority 1995, dated 1999).
